Assay results: ChEMBL document CHEMBL3885861, “Open TG-GATES”

Species on record: Rattus norvegicus
Assay: Open TG-GATES - Regimen: Single
Assay type: toxicity, organism-based, Sprague-Dawley
Parameters: regimen Single, gender Male, age 6 weeks
Settings: in vivo, po, 10 mg/kg, route gavage, dose level High; for APTT / Bas / Eos / Fbg / Hb / Ht / Lym / MCH / MCHC / MCV / Mono / Neu / PT / Plat / RBC / Ret / WBC: tissue Blood; for KIDNEY_L / KIDNEY_R / KIDNEY_TOTAL: tissue Kidney; for LIVER: tissue Liver; for A/G / ALP / ALT / AST / BUN / CRE / Ca / Cl / DBIL / GLC / IP / K / LDH / Na / PL / RALB / TBIL / TC / TG / TP / gamma-GTP: tissue Plasma

## CN1C(C(=O)Nc2ccccn2)=C(O)c2sc(Cl)cc2S1(=O)=O [LORNOXICAM]
3 h
  TERMINAL_BW: 225.5 g
  APTT: 20.6 s
  Bas: 0.6%
  Eos: 1%
  Fbg: 212.8 mg/dL
  Hb: 13.3 g/dL
  Ht: 40.2%
  Lym: 76%
  MCH: 20.9 pg
  MCHC: 33.3%
  MCV: 63 fL
  Mono: 2.8%
  Neu: 19.2%
  PT: 11.8 s
  Plat: 112.2 x10_4/uL
  RBC: 638.8 x10_4/ul
  Ret: 7.5%
  WBC: 112.4 x10_2/uL
  KIDNEY_L: 1 g
  KIDNEY_R: 1 g
  KIDNEY_TOTAL: 1.9 g
  LIVER: 10.3 g
  A/G: 1.8
  ALP: 965.2 IU/L
  ALT: 42.2 IU/L
  AST: 79.2 IU/L
  BUN: 13.4 mg/dL
  CRE: 0.4 mg/dL
  Ca: 10.7 mg/dL
  Cl: 104.4 meq/L
  DBIL: 0.074 mg/dL
  GLC: 193.6 mg/dL
  IP: 9 mg/dL
  K: 4.1 meq/L
  LDH: 188.8 IU/L
  Na: 142.2 meq/L
  PL: 139.2 mg/dL
  RALB: 3.5 g/dL
  TBIL: 0.1 mg/dL
  TC: 76.8 mg/dL
  TG: 38.2 mg/dL
  TP: 5.5 g/dL
  gamma-GTP: 0.6 IU/L
6 h
  TERMINAL_BW: 223.7 g
  APTT: 19.5 s
  Bas: 0.6%
  Eos: 0.8%
  Fbg: 229.2 mg/dL
  Hb: 13.2 g/dL
  Ht: 39.3%
  Lym: 76.8%
  MCH: 20.5 pg
  MCHC: 33.6%
  MCV: 60.9 fL
  Mono: 2.8%
  Neu: 18.6%
  PT: 12.1 s
  Plat: 129.2 x10_4/uL
  RBC: 644.8 x10_4/ul
  Ret: 6.7%
  WBC: 96.3 x10_2/uL
  KIDNEY_L: 1 g
  KIDNEY_R: 1 g
  KIDNEY_TOTAL: 2 g
  LIVER: 9.6 g
  A/G: 1.6
  ALP: 989.2 IU/L
  ALT: 46.8 IU/L
  AST: 78.6 IU/L
  BUN: 12.8 mg/dL
  CRE: 0.3 mg/dL
  Ca: 10.5 mg/dL
  Cl: 104.8 meq/L
  DBIL: 0.072 mg/dL
  GLC: 196.2 mg/dL
  IP: 8.6 mg/dL
  K: 3.9 meq/L
  LDH: 219 IU/L
  Na: 141.8 meq/L
  PL: 137 mg/dL
  RALB: 3.5 g/dL
  TBIL: 0.1 mg/dL
  TC: 75.8 mg/dL
  TG: 56.4 mg/dL
  TP: 5.6 g/dL
  gamma-GTP: 1 IU/L
9 h
  TERMINAL_BW: 221.8 g
  APTT: 18.9 s
  Bas: 0.4%
  Eos: 0.8%
  Fbg: 215.6 mg/dL
  Hb: 13.2 g/dL
  Ht: 39.2%
  Lym: 63.6%
  MCH: 21.1 pg
  MCHC: 33.7%
  MCV: 62.6 fL
  Mono: 4.2%
  Neu: 30.6%
  PT: 12.5 s
  Plat: 113.4 x10_4/uL
  RBC: 627.4 x10_4/ul
  Ret: 7%
  WBC: 97.9 x10_2/uL
  KIDNEY_L: 1 g
  KIDNEY_R: 1 g
  KIDNEY_TOTAL: 2 g
  LIVER: 9.3 g
  A/G: 1.7
  ALP: 755.2 IU/L
  ALT: 35.6 IU/L
  AST: 69.8 IU/L
  BUN: 13.8 mg/dL
  CRE: 0.3 mg/dL
  Ca: 10.5 mg/dL
  Cl: 103.6 meq/L
  DBIL: 0.08 mg/dL
  GLC: 188 mg/dL
  IP: 9.1 mg/dL
  K: 4.1 meq/L
  LDH: 195.6 IU/L
  Na: 141.4 meq/L
  PL: 130.8 mg/dL
  RALB: 3.3 g/dL
  TBIL: 0.1 mg/dL
  TC: 67.6 mg/dL
  TG: 59.2 mg/dL
  TP: 5.3 g/dL
  gamma-GTP: 1.2 IU/L
24 h
  TERMINAL_BW: 236.6 g
  APTT: 21.2 s
  Bas: 0.2%
  Eos: 0.4%
  Fbg: 261 mg/dL
  Hb: 12.8 g/dL
  Ht: 38.5%
  Lym: 54%
  MCH: 20.9 pg
  MCHC: 33.2%
  MCV: 63.1 fL
  Mono: 4%
  Neu: 39.6%
  PT: 12 s
  Plat: 119.9 x10_4/uL
  RBC: 610.2 x10_4/ul
  Ret: 6.5%
  WBC: 162.1 x10_2/uL
  KIDNEY_L: 1.1 g
  KIDNEY_R: 1.1 g
  KIDNEY_TOTAL: 2.2 g
  LIVER: 11.6 g
  A/G: 1.5
  ALP: 949.2 IU/L
  ALT: 38.6 IU/L
  AST: 69.8 IU/L
  BUN: 13.4 mg/dL
  CRE: 0.4 mg/dL
  Ca: 10.4 mg/dL
  Cl: 105 meq/L
  DBIL: 0.1 mg/dL
  GLC: 203.6 mg/dL
  IP: 7.6 mg/dL
  K: 4.1 meq/L
  LDH: 214.2 IU/L
  Na: 141.4 meq/L
  PL: 148.2 mg/dL
  RALB: 3.1 g/dL
  TBIL: 0.2 mg/dL
  TC: 74.6 mg/dL
  TG: 108.8 mg/dL
  TP: 5.1 g/dL
  gamma-GTP: 1 IU/L
